Assay results taken from ChEMBL document CHEMBL4184237, “Cytotoxic oligophenols from the rhizome of Wikstroemia indica” (Bioorg Med Chem Lett, 2018).

Assays:
SW480 [1] = test: Induction of apoptosis in human SW480 cells assessed as necrotic cells level incubated for 48 hrs by Annexin V-FITC and PI double staining based flow cytometry (reference value: 1.17%); format: functional
SW480 [2] = test: Cytotoxicity against human SW480 cells assessed as reduction in cell viability incubated for 24 hrs by CCK8 assay; format: functional, cell-based; conditions: SW480, 24 h
T98G [3] = test: Induction of apoptosis in human T98G cells assessed as early apoptotic cells level incubated for 48 hrs by Annexin V-FITC and PI double staining based flow cytometry (reference value: 1.79%); format: functional
T98G [4] = test: Induction of apoptosis in human T98G cells assessed as viable cells level incubated for 48 hrs by Annexin V-FITC and PI double staining based flow cytometry (reference value: 91.3%); format: functional
T98G [5] = test: Cytotoxicity against human T98G cells assessed as reduction in cell viability incubated for 24 hrs by CCK8 assay; format: functional, cell-based
T98G [6] = test: Effect on GAPDH protein expression human T98G cells assessed as GAPDH protein level incubated for 48 hrs by Western blot analysis relative to untreated control; format: ADME, cell-based
SW480 [7] = test: Induction of apoptosis in human SW480 cells assessed as viable cells level incubated for 48 hrs by Annexin V-FITC and PI double staining based flow cytometry (reference value: 93.2%); format: functional
SW480 [8] = test: Induction of apoptosis in human SW480 cells assessed as late apoptotic cells level incubated for 48 hrs by Annexin V-FITC and PI double staining based flow cytometry (reference value: 2.09%); format: functional
T98G [9] = test: Induction of apoptosis in human T98G cells assessed as late apoptotic cells level incubated for 48 hrs by Annexin V-FITC and PI double staining based flow cytometry (reference value: 5.35%); format: functional
SW480 [10] = test: Induction of apoptosis in human SW480 cells assessed as Bcl-xL protein level incubated for 48 hrs by Western blot analysis relative to untreated control; format: functional
T98G [11] = test: Induction of apoptosis in human T98G cells assessed as Bax protein level incubated for 48 hrs by Western blot analysis relative to untreated control; format: functional
SW480 [12] = test: Effect on GAPDH protein expression human SW480 cells assessed as GAPDH protein level incubated for 48 hrs by Western blot analysis relative to untreated control; format: ADME, cell-based; conditions: sw480, 48 h
T98G [13] = test: Induction of apoptosis in human T98G cells assessed as necrotic cells level incubated for 48 hrs by Annexin V-FITC and PI double staining based flow cytometry (reference value: 1.66%); format: functional
U-87 MG = test: Cytotoxicity against human U87 cells assessed as reduction in cell viability incubated for 24 hrs by CCK8 assay; format: functional, cell-based, U-87MG ATCC
HCT-116 = test: Cytotoxicity against human HCT116 cells assessed as reduction in cell viability incubated for 24 hrs by CCK8 assay; format: functional, cell-based; conditions: HCT-116, 24 h
SW480 [14] = test: Induction of apoptosis in human SW480 cells assessed as Bax protein level incubated for 48 hrs by Western blot analysis relative to untreated control; format: functional
SW480 [15] = test: Induction of apoptosis in human SW480 cells assessed as early apoptotic cells level incubated for 48 hrs by Annexin V-FITC and PI double staining based flow cytometry (reference value: 2.75%); format: functional
T98G [16] = test: Induction of apoptosis in human T98G cells assessed as Bcl-xL protein level incubated for 48 hrs by Western blot analysis relative to untreated control; format: functional

SMILES	fold change (FC) (T98G [6])	fold change (FC) (SW480 [12])	Activity (SW480 [1]) [%]	IC50 (SW480 [2]) [µM]	Activity (T98G [3]) [%]	Activity (T98G [4]) [%]	IC50 (T98G [5]) [µM]	Activity (SW480 [7]) [%]	Activity (SW480 [8]) [%]	Activity (T98G [9]) [%]	fold change (FC) (SW480 [10])	fold change (FC) (T98G [11])	Activity (T98G [13]) [%]	IC50 (U-87 MG) [µM]	IC50 (HCT-116) [µM]	fold change (FC) (SW480 [14])	Activity (SW480 [15]) [%]	fold change (FC) (T98G [16])
O=c1c(-c2c(O)cc3c(c2O)C[C@@H](O)[C@H](c2ccc(O)cc2)O3)c(-c2ccc(O)cc2)oc2cc(O)cc(O)c12	1	0.9	1.31	17.9	10.3	62.9	30.6	51.6	12.9	25.4	0.8	3.4	1.36	35.7	24.4	2.3	34.2	0.7
O=c1ccc2ccc(Oc3cc4ccc(O[C@@H]5O[C@H](CO)[C@@H](O)[C@H](O)[C@H]5O)c(-c5c(O)ccc6ccc(=O)oc56)c4oc3=O)cc2o1				> 100			> 100							> 100	> 100			
CC(=O)O[C@H]1C(=O)[C@@]2(C)[C@H]([C@H](OC(=O)c3ccccc3)[C@]3(O)C[C@H](OC(=O)[C@H](O)[C@@H](NC(=O)c4ccccc4)c4ccccc4)C(C)=C1C3(C)C)[C@]1(OC(C)=O)CO[C@@H]1C[C@@H]2O [PACLITAXEL]			1.13	0.19	15	25.6	0.74	33.6	14.7	56.2			3.23	4.67			45.6	

More lines, main results first:

fold change (FC) (T98G [6])	fold change (FC) (SW480 [12])	SMILES	Activity (SW480 [1]) [%]	IC50 (SW480 [2]) [µM]	Activity (T98G [3]) [%]	Activity (T98G [4]) [%]	IC50 (T98G [5]) [µM]	Activity (SW480 [7]) [%]	Activity (SW480 [8]) [%]	Activity (T98G [9]) [%]	fold change (FC) (SW480 [10])	fold change (FC) (T98G [11])	Activity (T98G [13]) [%]	IC50 (U-87 MG) [µM]	IC50 (HCT-116) [µM]	fold change (FC) (SW480 [14])	Activity (SW480 [15]) [%]	fold change (FC) (T98G [16])
1	1	O=c1c(-c2c(O)cc3c(c2O)C[C@H](O)[C@H](c2ccc(O)c(O)c2)O3)c(-c2ccc(O)cc2)oc2cc(O)cc(O)c12	2.87	71	4.11	79.4	83.5	64.8	13.7	15	0.6	4.1	1.55	88.4	87.6	1.9	18.5	0.4
0.9	1	O=c1c(-c2c(O)cc3c(c2O)C[C@@H](O)[C@@H](c2ccc(O)c(O)c2)O3)c(-c2ccc(O)cc2)oc2cc(O)cc(O)c12	0.909	30.4	17.8	63.9	27.3	68.1	9.3	17.2	0.7	3.8	1.15	32.5	28.7	2.4	21.7	0.7
